Experimental data: publication PMC2011259, “Pentamethylmelamine (PMM): Phase I clinical and pharmacokinetic studies” (British Journal of Cancer, 1983)

Columns and labels:
[1] = oral HMM 120-300 mg m-2, n = 9 (9/11 patients), mean + SEM; ref D'Incalci et al. (1978); cited from earlier work
[2] = Pharmacokinetic studies: plasma levels of PMM, TMM and TRIMM by gas liquid chromatography; format: in vivo, man; settings: after i.v. PMM
Source text: Br. J. Cancer (1983), 47, 027-033 Pentamethylmelamine (PMM): Phase I clinical and pharmacokinetic studies J.R.F. Muindi*, D.R. Newellt, I.E. Smith* & K.R. Harrapt *Division of Medicine, Institute of Cancer Research and Royal Marsden Hospital, and the tDepartment of Biochemical Pharmacology, Institute of Cancer Research, Sutton, Surrey. […] PMM has been administered as an intravenous infusion to 17 patients in a Phase I clinical trial. […] In the present study the results of the Phase I clinical evaluation of PMM at the Royal Marsden Hospital are reported. In addition to the clinical assessment of patients, pharmacokinetic studies were also performed. […] (Broggini et al., 1981; Morimoto et al., 1980; Ames et al., 1979; Casper et al., 1981; Idhe et al., 1981; Benvenuto et al., 1981; Rutty et al., 1982). […] The mechanism of action of N-methylolmelamines is, however, still uncertain. To ascertain the rate and extent of PMM metabolism in man, plasma levels of the parent drug and the first two products of oxidative N- demethylation i.e. N2,N2,N4,N6-tetramethyl- melamine (TMM) and N2,N4,N6-trimethylmelamine (TRIMM) were measured (Figure 2). […] Materials and methods Patient selection The patients entered in the PMM Phase I clinical study were all under the care of the Royal Marsden Hospital. […] Additional criteria required for eligibility to enter into the study included: WBC and platelet count > 3000 uM I-' and > 100,000 pM 11 respectively; blood urea and serum creatinine < 8 mM ,M I1- and < 106 pM 1 respectively. None of the patients had received cancer chemotherapy or radiotherapy during the 3-week period preceding their entry into the study. […] The treatment protocol was approved by the Ethical Committee of the Royal Marsden Hospital and informed consent was obtained from all patients prior to entry into the study. […] It was supplied by Prof. W.C.J. Ross of the Chester Beatty Research Institute, London, as a white crystalline powder. PMM (2mg ml-') was infused intravenously as a 2% ethanol 5% dextrose solution after micropore (0.22 pm) filtration. All formulated PMM infusions were used within 24h of preparation, as a sterility precaution. PMM was initially given at a dose of […] and the dose escalated to 1300mgm-2 according to a modified Fibonacci scheme (Table II). At higher PMM doses, requiring large infusion volumes, the infusion time was extended from 1 to 4 h. No dose escalation was TRIMM CH3 Nc"N H 11 H Ii N N H CH3 HCHO 1. carried out in the same patient.

SMILES | HMM AUC 0-12h [1] | Quantity of metabolite in plasma [2]
CN(C)c1nc(N(C)C)nc(N(C)C)n1 [HMM, hexamethylmelamine] | 763 +163 iMxmin | 
CN(C)c1nc(N)nc(N(C)C)n1 [N2,N2,N4,N4-tetramethylmelamine] |  | minor quantities
CNc1nc(N)nc(N(C)C)n1 [N2,N2,N4-trimethylmelamine] |  | minor quantities
